In patent publication US7935182B2, “Solution for wood preservation” (priority 2004, dated 2011):

Assay: copper leaching from wood impregnated with preservative solution
Assay type: physicochemical

Structure (SMILES) | copper leaching rates compared to diethanolamine or triethanolamine (wood impregnated with preservative solution, ethanolamine used as amine source) | Copper leached in % (wood treated with copper based preservative solution)
NCCO [ethanolamine] | Almost ten times lowest | 
O=S(=O)([O-])[O-].[Cu+2] [Copper (II) sulphate] |  | 45-55%^
